Measured values as given in US10844077B2, “Thiazolyl-containing compounds for treating proliferative diseases” (Dana-Farber Cancer Institute, Inc., priority 2014, dated 2020).
Values joined by “and” are separate entries in the source; they are usually repeats but may differ in a detail not shown here. Identical values can stand only once.

Assays:
Experiment in all cases: KINATIV assay
Assay type in all cases: cell-based
Details in all cases: 1 μM, 90 minutes, BCWM.1 cells
NEK3 = NEK3 (Homo sapiens (Human), UniProt P51956)
Procedure: (§1) The cells were harvested and lysed. The lysates were directly labeled with an ATP-biotin probe. Bound kinases were identified and quantitated by ACTIVX as described in Patricelli et al., Biochemistry, 2007, 46(2): 350-358. The compounds were tested in duplicates against duplicate or quadruplicate control samples.

JNK1, JNK2, JNK3 = tested on: JNK1, JNK2, JNK3
Procedure: as §1

MAP3K15, MAP3K5, MAP3K6 = tested on: MAP3K15, MAP3K5, MAP3K6
Procedure: as §1

IRAK1 = IRAK1 (Homo sapiens (Human), UniProt P51617)
Procedure: as §1

MARK2 = MARK2 (Homo sapiens (Human), UniProt Q7KZI7)
Procedure: as §1

IKKe = IKKe (Homo sapiens (Human), UniProt Q14164)
Procedure: as §1

CK1g2 = CK1g2 (Homo sapiens (Human), UniProt P78368)
Procedure: as §1

TLK2 = TLK2 (Homo sapiens (Human), UniProt Q86UE8)
Procedure: as §1

p70S6Kb = p70S6Kb (Homo sapiens (Human), UniProt Q9UBS0)
Procedure: as §1

LCK = LCK (Homo sapiens (Human), UniProt P06239)
Procedure: as §1

PIK3CD = PIK3CD (Homo sapiens (Human), UniProt O00329)
Procedure: as §1

CK1a = CK1a (Homo sapiens (Human), UniProt P48729)
Procedure: as §1

GCN2 = GCN2 (Homo sapiens (Human), UniProt Q9P2K8)
Procedure: as §1

IKKa = IKKa (Homo sapiens (Human), UniProt O15111)
Procedure: as §1

MAST3 = MAST3 (Homo sapiens (Human), UniProt O60307)
Procedure: as §1

RSK4 domain1 = RSK4 domain1 (Homo sapiens (Human), UniProt Q9UK32)
Procedure: as §1

p38b = p38b (Homo sapiens (Human), UniProt Q15759)
Procedure: as §1

NEK6, NEK7 = tested on: NEK6, NEK7
Procedure: as §1

MARK1, MARK2 = tested on: MARK1, MARK2
Procedure: as §1

CSK = CSK (Homo sapiens (Human), UniProt P41240)
Procedure: as §1

BRAF = BRAF (Homo sapiens (Human), UniProt P15056)
Procedure: as §1

RSK1 domain2 = RSK1 domain2 (Homo sapiens (Human), UniProt Q15418)
Procedure: as §1

Wnk1, Wnk2 = tested on: Wnk1, Wnk2
Procedure: as §1

Erk2 = Erk2 (Homo sapiens (Human), UniProt P28482)
Procedure: as §1

LKB1 = LKB1 (Homo sapiens (Human), UniProt Q15831)
Procedure: as §1

PIK3CG = PIK3CG (Homo sapiens (Human), UniProt P48736)
Procedure: as §1

BARK1 = BARK1 (Homo sapiens (Human), UniProt P25098)
Procedure: as §1

NEK1 = NEK1 (Homo sapiens (Human), UniProt Q96PY6)
Procedure: as §1

[1] = tested on: CaMK2a, CaMK2b, CaMK2d, CaMK2g
Procedure: as §1

MAP3K3 = MAP3K3 (Homo sapiens (Human), UniProt Q99759)
Procedure: as §1

MELK = MELK (Homo sapiens (Human), UniProt Q14680)
Procedure: as §1

CK2a1 = CK2a1 (Homo sapiens (Human), UniProt P68400)
Procedure: as §1

SNRK = SNRK (Homo sapiens (Human), UniProt Q9NRH2)
Procedure: as §1

FGR = FGR (Homo sapiens (Human), UniProt P09769)
Procedure: as §1

RSK3 domain1 = RSK3 domain1 (Homo sapiens (Human), UniProt Q15349)
Procedure: as §1

PIP4K2C = PIP4K2C (Homo sapiens (Human), UniProt Q8TBX8)
Procedure: as §1

CDK4 = CDK4 (Homo sapiens (Human), UniProt P11802)
Procedure: as §1

PAN3 = PAN3 (Homo sapiens (Human), UniProt Q58A45)
Procedure: as §1

MST1 = MST1 (Homo sapiens (Human), UniProt Q13043)
Procedure: as §1

CDC2 = CDC2 (Homo sapiens (Human), UniProt P06493)
Procedure: as §1

AMPKa1, AMPKa2 = tested on: AMPKa1, AMPKa2
Procedure: as §1

Chain of GCN2 (Q9P2K8 whole entry): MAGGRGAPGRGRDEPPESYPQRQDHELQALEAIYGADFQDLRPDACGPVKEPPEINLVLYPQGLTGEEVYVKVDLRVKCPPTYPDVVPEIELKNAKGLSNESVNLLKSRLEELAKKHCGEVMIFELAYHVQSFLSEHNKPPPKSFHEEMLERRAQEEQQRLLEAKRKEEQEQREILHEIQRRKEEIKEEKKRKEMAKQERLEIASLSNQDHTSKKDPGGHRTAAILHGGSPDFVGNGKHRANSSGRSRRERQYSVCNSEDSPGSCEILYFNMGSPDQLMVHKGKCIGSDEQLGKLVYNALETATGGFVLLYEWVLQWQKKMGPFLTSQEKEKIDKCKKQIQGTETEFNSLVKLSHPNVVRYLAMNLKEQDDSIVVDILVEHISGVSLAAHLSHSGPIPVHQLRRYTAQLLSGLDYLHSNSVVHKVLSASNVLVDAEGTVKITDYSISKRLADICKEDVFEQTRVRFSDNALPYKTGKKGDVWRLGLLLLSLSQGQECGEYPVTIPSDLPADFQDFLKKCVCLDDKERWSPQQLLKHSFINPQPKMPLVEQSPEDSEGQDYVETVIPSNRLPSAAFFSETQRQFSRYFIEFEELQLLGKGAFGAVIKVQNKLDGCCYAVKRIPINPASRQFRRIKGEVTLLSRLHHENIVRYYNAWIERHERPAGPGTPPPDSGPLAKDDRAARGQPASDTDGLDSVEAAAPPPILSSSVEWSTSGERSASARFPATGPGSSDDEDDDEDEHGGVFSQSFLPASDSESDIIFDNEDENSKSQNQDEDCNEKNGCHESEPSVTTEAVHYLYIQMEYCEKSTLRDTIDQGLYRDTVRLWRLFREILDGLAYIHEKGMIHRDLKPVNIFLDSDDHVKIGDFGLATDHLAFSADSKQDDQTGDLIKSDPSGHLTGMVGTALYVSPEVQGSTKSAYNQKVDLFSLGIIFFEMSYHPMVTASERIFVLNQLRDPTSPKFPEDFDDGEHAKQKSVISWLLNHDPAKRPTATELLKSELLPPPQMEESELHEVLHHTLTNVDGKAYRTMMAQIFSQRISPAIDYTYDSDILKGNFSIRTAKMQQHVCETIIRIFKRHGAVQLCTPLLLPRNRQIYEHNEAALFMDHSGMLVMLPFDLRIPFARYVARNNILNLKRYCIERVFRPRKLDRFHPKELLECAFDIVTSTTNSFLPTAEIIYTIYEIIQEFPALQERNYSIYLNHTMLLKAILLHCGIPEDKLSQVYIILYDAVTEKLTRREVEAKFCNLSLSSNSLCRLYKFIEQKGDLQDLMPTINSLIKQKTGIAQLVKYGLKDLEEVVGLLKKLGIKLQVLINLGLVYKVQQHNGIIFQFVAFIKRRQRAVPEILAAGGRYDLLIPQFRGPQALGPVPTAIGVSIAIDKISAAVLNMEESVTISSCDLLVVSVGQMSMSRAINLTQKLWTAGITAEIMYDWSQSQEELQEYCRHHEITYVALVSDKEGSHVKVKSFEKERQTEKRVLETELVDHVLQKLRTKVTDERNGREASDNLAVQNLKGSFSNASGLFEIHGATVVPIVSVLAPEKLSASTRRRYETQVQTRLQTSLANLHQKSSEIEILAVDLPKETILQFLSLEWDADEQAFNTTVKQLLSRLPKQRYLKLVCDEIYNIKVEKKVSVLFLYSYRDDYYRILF
Chain of CSK (P41240 whole entry): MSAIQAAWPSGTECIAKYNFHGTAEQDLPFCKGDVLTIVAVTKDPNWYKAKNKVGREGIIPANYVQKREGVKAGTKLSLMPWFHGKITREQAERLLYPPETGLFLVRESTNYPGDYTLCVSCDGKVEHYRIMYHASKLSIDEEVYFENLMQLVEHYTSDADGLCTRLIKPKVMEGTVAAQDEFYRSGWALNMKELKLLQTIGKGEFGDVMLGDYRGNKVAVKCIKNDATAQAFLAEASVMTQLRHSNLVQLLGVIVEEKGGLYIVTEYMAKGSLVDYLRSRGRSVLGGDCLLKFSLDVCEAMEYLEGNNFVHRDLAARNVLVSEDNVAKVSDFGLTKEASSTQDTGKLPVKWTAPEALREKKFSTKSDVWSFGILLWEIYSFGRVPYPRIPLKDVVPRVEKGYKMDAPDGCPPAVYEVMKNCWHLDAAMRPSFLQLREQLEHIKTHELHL
Chain of SNRK (Q9NRH2 whole entry): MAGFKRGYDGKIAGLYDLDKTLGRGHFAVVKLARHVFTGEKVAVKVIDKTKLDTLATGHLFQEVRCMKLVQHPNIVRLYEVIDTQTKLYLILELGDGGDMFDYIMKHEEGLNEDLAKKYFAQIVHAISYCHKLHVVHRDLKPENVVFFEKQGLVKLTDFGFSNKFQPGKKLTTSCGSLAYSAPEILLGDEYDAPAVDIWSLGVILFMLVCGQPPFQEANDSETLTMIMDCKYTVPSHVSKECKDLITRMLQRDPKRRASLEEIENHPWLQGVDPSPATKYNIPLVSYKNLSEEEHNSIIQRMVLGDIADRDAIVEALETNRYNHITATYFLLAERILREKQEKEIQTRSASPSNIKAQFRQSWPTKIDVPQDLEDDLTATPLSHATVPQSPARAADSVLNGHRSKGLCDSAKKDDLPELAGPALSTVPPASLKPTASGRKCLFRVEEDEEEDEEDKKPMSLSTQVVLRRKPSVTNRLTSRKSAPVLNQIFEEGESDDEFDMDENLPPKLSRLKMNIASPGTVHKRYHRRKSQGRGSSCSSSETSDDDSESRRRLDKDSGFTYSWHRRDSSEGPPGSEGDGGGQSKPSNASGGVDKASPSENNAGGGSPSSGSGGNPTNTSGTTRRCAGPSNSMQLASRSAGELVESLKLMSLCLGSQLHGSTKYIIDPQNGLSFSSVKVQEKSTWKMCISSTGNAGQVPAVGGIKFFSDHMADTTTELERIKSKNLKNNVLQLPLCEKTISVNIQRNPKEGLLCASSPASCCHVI
Chain of PIK3CD (O00329 whole entry): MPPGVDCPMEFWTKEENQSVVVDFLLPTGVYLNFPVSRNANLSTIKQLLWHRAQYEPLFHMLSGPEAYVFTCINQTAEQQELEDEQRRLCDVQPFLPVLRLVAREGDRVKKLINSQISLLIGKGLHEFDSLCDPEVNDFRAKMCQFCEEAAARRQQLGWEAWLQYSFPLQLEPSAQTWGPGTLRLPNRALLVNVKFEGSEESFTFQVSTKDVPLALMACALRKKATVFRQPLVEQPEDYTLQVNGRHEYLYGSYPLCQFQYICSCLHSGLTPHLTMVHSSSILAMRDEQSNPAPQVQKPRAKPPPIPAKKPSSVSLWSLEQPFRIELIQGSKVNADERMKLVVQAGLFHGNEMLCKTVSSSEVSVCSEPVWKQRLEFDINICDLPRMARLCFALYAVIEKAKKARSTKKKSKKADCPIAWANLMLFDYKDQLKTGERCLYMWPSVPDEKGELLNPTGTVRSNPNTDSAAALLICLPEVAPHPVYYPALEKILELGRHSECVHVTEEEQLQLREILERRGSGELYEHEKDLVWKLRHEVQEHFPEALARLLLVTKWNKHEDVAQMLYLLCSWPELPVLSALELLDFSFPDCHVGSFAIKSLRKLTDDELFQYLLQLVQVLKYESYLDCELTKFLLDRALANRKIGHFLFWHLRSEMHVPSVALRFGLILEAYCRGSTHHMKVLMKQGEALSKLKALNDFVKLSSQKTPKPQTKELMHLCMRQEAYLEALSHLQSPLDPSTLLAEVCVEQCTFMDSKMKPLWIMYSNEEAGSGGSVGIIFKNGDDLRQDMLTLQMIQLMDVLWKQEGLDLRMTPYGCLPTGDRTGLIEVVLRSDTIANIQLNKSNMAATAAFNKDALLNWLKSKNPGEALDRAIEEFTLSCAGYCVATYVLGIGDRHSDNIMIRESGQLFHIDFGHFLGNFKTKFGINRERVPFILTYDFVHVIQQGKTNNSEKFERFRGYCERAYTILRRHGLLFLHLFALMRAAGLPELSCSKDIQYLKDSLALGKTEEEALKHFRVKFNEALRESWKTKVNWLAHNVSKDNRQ
Chain of PIK3CD (P27986 whole entry partner): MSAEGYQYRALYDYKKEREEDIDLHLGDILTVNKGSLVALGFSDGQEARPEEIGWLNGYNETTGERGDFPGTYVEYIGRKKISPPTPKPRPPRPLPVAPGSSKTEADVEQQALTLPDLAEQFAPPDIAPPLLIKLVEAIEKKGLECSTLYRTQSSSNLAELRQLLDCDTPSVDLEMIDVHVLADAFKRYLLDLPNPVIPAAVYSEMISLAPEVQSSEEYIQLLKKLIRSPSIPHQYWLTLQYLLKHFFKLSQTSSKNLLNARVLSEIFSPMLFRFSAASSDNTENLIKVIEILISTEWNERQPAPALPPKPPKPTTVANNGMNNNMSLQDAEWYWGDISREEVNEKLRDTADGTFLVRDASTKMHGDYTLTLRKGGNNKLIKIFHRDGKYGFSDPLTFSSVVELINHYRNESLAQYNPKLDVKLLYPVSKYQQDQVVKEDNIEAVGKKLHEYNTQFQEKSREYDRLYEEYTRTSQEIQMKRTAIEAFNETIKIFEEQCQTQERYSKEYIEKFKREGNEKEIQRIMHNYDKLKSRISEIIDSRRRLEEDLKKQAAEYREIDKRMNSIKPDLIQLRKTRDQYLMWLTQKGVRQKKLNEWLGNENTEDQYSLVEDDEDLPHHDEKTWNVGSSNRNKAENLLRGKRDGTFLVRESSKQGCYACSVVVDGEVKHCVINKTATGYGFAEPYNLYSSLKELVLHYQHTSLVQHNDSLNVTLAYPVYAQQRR
Chain of CK2a1 (P68400 whole entry): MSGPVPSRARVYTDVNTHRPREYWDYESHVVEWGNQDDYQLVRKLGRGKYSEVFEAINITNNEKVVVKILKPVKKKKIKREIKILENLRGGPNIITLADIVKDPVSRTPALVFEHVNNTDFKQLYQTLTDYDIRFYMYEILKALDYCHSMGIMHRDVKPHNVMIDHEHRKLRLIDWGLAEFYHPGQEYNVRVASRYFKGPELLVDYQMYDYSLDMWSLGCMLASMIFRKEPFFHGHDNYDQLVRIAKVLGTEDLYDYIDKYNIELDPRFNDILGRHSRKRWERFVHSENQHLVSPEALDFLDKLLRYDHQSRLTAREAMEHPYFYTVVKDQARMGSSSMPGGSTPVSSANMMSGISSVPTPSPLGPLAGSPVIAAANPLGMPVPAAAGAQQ

| SMILES | % change of MS signal compared to control sample (NEK3) | % change of MS signal compared to control sample (JNK1, JNK2, JNK3) | % change of MS signal compared to control sample (MAP3K15, MAP3K5, MAP3K6) | % change of MS signal compared to control sample (IRAK1) | % change of MS signal compared to control sample (MARK2) | % change of MS signal compared to control sample (IKKe) | % change of MS signal compared to control sample (CK1g2) | % change of MS signal compared to control sample (TLK2) | % change of MS signal compared to control sample (p70S6Kb) | % change of MS signal compared to control sample (LCK) | % change of MS signal compared to control sample (PIK3CD) | % change of MS signal compared to control sample (CK1a) | % change of MS signal compared to control sample (GCN2) | % change of MS signal compared to control sample (IKKa) | % change of MS signal compared to control sample (MAST3) | % change of MS signal compared to control sample (RSK4 domain1) | % change of MS signal compared to control sample (p38b) | % change of MS signal compared to control sample (NEK6, NEK7) | % change of MS signal compared to control sample (MARK1, MARK2) | % change of MS signal compared to control sample (CSK) | further results |
| --- | --- | --- | --- | --- | --- | --- | --- | --- | --- | --- | --- | --- | --- | --- | --- | --- | --- | --- | --- | --- | --- |
| C=CC(=O)N1CCC(CNc2nccc(Nc3ncc(C(=O)Nc4c(C)cccc4C)s3)n2)C1 (racemic) [Example I-8] | 3.2% | −9.5% | 2.2% | 13.6% | 12.1% | −5.9% | −6.1% | 9.4% | −22.7% | 94.8% | −16.2% | 14.9% | −20.3% and −13.6% | −4.2% | −8.3% | −8.2% | 12.0% | −11.0% | 14.6% | 88.1% and 86.2% | % change of MS signal compared to control sample (BRAF): 11.1%; % change of MS signal compared to control sample (RSK1 domain2): 0.5%; % change of MS signal compared to control sample (Wnk1, Wnk2): −16.4%; % change of MS signal compared to control sample (Erk2): −0.1%; % change of MS signal compared to control sample (LKB1): −1.8%; % change of MS signal compared to control sample (PIK3CG): −55.4%; % change of MS signal compared to control sample (BARK1): −19.6%; % change of MS signal compared to control sample (NEK1): 12.8%; % change of MS signal compared to control sample [1]: 10.4%; % change of MS signal compared to control sample (MAP3K3): 7.9%; % change of MS signal compared to control sample (MELK): −10.0%; % change of MS signal compared to control sample (CK2a1): 13.9%; % change of MS signal compared to control sample (SNRK): 45.1% and 59.1%; % change of MS signal compared to control sample (FGR): 86.0%; % change of MS signal compared to control sample (RSK3 domain1): −62.5%; % change of MS signal compared to control sample (PIP4K2C): 97.6% and 85.7%; % change of MS signal compared to control sample (CDK4): 6.1%; % change of MS signal compared to control sample (PAN3): 18.3%; % change of MS signal compared to control sample (MST1): 2.4% |
| C=CC(=O)N1CCC(Cn2ccc(Nc3ncc(C(=O)Nc4c(C)cccc4Cl)s3)n2)C1 (stereo not shown) [II-1] | 8.1% | −23.5% | 7.5% | 26.3% | 15.4% | −1.0% | −1.1% | 7.3% | −57.1% | 92.4% | −9.5% | −14.4% | −6.2% and −4.1% | −2.1% | 3.8% | −22.4% | −19.0% | −0.2% | 20.9% | 26.2% and 32.5% | % change of MS signal compared to control sample (CDC2): −5.2% and 2.7%; % change of MS signal compared to control sample (AMPKa1, AMPKa2): −19.4% and −27.3%; % change of MS signal compared to control sample (BRAF): 6.9%; % change of MS signal compared to control sample (RSK1 domain2): 14.0%; % change of MS signal compared to control sample (Wnk1, Wnk2): −3.8%; % change of MS signal compared to control sample (Erk2): −5.8%; % change of MS signal compared to control sample (LKB1): −1.2%; % change of MS signal compared to control sample (PIK3CG): −45.9%; % change of MS signal compared to control sample (BARK1): −23.3%; % change of MS signal compared to control sample (NEK1): 14.9%; % change of MS signal compared to control sample [1]: 2.5%; % change of MS signal compared to control sample (MAP3K3): 13.7%; % change of MS signal compared to control sample (MELK): 4.2%; % change of MS signal compared to control sample (CK2a1): 24.7%; % change of MS signal compared to control sample (SNRK): 47.8% and 59.8%; % change of MS signal compared to control sample (FGR): 87.8%; % change of MS signal compared to control sample (RSK3 domain1): −58.4%; % change of MS signal compared to control sample (CDK4): 2.2%; % change of MS signal compared to control sample (PAN3): −7.0%; % change of MS signal compared to control sample (MST1): 13.2% |
